What was measured:
[1] = molecular target: T1, NR1-2D NMDAR (Homo sapiens, UniProt O15399+Q05586); assay: cell-based; assay type: cell-based; design: host or cells: CHO (CHO-hN1-h2D), tetracycline-induced expression
[2] = molecular target: T2, NR1-2B NMDAR (Homo sapiens, UniProt Q05586+Q13224); assay: FLIPR Ca2+ assay, blocker concentration-response curve; assay type: cell-based; design: host or cells: CHO (CHO-hNR1-h2B), constitutive expression
From the text: (§1) CHO cell lines stably over-expressing heterodimeric NMDARs composed of human NR1 and 2 subunits were generated by Aptuit, an Evotec company (Verona, Italy). Cell line details are available at ExPASy Cellosaurus database. Research Resource Identifiers (RRIDs) are CVCL_B3TY, CVCL_B3TZ, CVCL_B3U0, and CVCL_B3U1 for CHO-hNR1-h2A, CHO-hNR1-h2B, CHO-hN1-h2C, and CHO-hN1-h2D, respectively. Protein accession numbers were NP_015566, NP_000824, NP_000825, NP_000826, and NP_000827 for NR1, 2A, 2B, 2C, and 2D, respectively. […] The four different heterodimeric NMDARs studied were NR1-2A, NR1-2B, NR1-2C, and NR1-2D. Cell lines were cultured for a maximum of 75 passages.
(§2) FLIPR assay allowed for indirect measurement of intracellular Ca^2+ concentration by means of a Ca^2+-sensitive fluorescent dye (Fluo-4) using the FLIPR instrument (Molecular Devices, San Jose, CA, USA). For these assays, 40 mM stock solutions of the test items were prepared in 100% dimethyl sulfoxide (DMSO), while glutamate and glycine 4 mM stock solutions were prepared in water. 384-well compound plates containing 400 × concentrated test item, glutamate, and glycine were prepared using Labcyte Echo acoustic dispensing system and stored at −20 °C until the day of the experiment.
(§3) Glycine 10 μM was always included in every test item addition.
(§4) Glycine was kept at a constant concentration of 10 μM during experiments.

[3] = molecular target: T3, NR1-2C NMDAR (Homo sapiens, UniProt Q05586+Q14957); assay: cell-based; assay type: cell-based; design: host or cells: CHO (CHO-hN1-h2C), tetracycline-induced expression
[4] = molecular target: T4, NR1-2A NMDAR (Homo sapiens, UniProt Q05586+Q12879); assay: cell-based; assay type: cell-based; design: host or cells: CHO (CHO-hNR1-h2A), tetracycline-induced expression
T4 sequence (Q12879 23-1464, other chains not shown): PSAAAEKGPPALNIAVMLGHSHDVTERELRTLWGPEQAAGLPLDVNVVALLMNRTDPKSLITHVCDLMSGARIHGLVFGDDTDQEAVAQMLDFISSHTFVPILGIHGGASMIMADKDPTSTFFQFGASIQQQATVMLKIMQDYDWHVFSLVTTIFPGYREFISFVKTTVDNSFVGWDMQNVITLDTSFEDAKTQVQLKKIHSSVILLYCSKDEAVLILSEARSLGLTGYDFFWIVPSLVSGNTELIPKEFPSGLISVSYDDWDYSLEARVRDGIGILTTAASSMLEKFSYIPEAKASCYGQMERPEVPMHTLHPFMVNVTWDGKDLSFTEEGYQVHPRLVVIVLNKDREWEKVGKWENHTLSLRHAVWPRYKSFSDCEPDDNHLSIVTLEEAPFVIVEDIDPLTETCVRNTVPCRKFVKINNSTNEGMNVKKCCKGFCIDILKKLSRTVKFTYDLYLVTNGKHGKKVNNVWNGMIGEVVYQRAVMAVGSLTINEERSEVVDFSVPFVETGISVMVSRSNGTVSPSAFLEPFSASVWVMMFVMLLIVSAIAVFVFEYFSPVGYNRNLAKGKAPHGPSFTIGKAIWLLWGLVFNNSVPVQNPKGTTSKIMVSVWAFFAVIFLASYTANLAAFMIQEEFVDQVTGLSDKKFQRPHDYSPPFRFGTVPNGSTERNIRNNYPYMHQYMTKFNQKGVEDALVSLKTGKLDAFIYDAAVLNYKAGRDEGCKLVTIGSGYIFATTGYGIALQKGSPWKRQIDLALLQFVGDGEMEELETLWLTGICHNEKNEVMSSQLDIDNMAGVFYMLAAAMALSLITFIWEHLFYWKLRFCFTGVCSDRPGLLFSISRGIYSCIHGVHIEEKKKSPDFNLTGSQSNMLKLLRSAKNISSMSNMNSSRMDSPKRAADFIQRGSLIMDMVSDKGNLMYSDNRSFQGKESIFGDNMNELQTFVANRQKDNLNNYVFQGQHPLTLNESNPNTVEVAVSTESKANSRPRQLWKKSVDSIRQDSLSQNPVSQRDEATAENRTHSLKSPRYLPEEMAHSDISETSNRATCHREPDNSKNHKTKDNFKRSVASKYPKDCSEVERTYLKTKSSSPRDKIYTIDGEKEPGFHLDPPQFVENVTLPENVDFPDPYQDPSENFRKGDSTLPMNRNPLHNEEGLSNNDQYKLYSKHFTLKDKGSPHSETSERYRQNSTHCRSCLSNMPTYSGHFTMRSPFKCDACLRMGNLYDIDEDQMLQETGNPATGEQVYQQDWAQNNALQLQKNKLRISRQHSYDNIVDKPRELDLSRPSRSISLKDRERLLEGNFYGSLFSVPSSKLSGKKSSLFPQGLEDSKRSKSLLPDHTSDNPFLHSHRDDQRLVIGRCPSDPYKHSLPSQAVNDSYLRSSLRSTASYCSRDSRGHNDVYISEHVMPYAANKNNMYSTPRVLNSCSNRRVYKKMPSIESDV

[5] = molecular target: T3, NR1-2C NMDAR; assay: FLIPR Ca2+ assay, blocker concentration-response curve; assay type: cell-based; design: host or cells: CHO (CHO-hN1-h2C), tetracycline-induced expression
From the text: as §1, §2, §3, §4

[6] = molecular target: T1, NR1-2D NMDAR; assay: as above; assay type: cell-based; design: host or cells: CHO (CHO-hN1-h2D), tetracycline-induced expression
From the text: as §1, §2, §3, §4

[7] = test system: NMDAR; conditions: rat cortical membranes
[8] = molecular target: T4, NR1-2A NMDAR; assay: FLIPR Ca2+ assay, blocker concentration-response curve; assay type: cell-based; design: host or cells: CHO (CHO-hNR1-h2A), tetracycline-induced expression
From the text: as §1, §2, §3, §4

[9] = molecular target: T2, NR1-2B NMDAR; assay: cell-based; assay type: cell-based; design: host or cells: CHO (CHO-hNR1-h2B), constitutive expression
[10] = 100 μM blocker, 10 µM L-glutamate, no Mg2+

T1 sequence (O15399 28-1336, other chains not shown): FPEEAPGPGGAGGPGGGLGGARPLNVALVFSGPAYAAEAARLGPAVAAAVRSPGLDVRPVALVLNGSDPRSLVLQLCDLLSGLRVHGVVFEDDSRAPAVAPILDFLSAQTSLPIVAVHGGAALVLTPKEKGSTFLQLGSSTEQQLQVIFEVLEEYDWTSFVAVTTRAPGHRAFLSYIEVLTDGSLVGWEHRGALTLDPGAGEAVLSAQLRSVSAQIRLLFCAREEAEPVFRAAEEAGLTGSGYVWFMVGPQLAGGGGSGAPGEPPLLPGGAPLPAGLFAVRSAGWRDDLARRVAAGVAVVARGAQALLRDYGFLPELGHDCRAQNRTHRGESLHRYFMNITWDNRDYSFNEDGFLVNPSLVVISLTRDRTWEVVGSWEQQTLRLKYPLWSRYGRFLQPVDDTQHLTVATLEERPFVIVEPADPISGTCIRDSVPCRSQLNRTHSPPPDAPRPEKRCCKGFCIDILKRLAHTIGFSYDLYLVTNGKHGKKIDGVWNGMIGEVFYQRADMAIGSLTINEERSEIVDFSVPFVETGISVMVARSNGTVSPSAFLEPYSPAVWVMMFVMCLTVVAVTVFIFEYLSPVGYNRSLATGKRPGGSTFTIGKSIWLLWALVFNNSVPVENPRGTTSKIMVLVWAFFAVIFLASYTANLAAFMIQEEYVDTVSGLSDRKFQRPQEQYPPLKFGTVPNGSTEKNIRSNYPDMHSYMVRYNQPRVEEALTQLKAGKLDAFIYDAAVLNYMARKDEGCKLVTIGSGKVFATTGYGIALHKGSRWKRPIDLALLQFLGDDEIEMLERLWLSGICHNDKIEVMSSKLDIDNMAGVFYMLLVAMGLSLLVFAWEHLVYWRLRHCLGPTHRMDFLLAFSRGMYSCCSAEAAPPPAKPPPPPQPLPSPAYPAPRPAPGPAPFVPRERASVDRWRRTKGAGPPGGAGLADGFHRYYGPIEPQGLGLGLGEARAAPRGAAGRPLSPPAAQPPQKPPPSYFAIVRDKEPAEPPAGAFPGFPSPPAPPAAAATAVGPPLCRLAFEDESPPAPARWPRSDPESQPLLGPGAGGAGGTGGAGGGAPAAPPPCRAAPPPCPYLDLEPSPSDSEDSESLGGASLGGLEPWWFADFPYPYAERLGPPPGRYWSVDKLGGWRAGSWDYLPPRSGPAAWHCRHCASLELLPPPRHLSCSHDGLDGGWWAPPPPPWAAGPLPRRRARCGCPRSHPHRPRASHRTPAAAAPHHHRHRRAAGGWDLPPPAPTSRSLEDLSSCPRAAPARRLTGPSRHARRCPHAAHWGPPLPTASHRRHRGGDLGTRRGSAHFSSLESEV
T2 sequence (Q13224 27-1484, other chains not shown): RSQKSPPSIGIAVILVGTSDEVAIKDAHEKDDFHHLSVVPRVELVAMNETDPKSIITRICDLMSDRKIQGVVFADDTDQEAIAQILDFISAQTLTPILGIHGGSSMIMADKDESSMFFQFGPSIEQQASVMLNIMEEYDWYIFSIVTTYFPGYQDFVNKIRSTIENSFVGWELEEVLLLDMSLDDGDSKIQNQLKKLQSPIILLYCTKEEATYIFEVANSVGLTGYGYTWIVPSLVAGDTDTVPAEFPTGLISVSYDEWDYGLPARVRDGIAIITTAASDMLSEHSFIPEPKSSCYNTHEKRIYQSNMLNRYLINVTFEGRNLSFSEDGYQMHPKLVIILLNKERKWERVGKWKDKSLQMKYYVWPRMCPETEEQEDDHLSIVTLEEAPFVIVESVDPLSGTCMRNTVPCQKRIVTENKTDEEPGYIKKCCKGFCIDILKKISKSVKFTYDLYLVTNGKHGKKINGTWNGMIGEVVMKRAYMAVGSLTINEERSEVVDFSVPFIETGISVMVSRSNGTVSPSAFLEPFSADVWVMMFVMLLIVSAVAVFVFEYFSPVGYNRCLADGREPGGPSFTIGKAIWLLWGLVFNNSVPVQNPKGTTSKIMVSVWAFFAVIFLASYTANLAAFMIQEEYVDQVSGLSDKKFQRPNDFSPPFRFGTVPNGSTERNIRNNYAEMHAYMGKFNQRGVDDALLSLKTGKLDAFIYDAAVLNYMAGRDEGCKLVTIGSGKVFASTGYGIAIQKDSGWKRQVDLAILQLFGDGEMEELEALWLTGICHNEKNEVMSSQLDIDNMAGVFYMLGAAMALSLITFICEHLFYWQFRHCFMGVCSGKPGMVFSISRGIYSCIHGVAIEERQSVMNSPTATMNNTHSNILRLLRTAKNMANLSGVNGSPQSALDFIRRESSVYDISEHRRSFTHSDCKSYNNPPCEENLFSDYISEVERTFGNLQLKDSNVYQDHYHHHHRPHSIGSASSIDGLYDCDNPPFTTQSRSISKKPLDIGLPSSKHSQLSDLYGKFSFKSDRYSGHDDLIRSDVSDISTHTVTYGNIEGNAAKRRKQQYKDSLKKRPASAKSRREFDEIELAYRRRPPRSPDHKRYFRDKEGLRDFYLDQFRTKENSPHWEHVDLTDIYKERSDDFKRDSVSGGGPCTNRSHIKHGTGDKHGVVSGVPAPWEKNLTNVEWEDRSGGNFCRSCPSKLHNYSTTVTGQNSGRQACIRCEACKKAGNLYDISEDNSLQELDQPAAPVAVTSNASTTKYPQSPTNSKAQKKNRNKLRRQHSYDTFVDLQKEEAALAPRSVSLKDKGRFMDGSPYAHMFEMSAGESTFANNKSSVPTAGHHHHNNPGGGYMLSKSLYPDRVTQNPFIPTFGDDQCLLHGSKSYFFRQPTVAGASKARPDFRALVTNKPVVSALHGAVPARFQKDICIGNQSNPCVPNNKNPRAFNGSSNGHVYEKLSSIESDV

## COc1ccc2c(c1)[C@]13CCCC[C@@H]1[C@H](C2)N(C)CC3 [Dextromethorphan, dextromethorphan]
[1]; NR1-2D, operational equation for allosteric modulators, no Mg2+
  Kb: 6700 nM
[1]; NR1-2D, reciprocal of KB, highest affinity subtype = 100%
  Affinity Ratio (%): 18%
[1]; read-out: L-glutamate Max. (maximal asymptote) in the presence of test item, GluN1/GluN2D, test item 0.049 μM
  remaining activity at 0.049 µM: 93%
[1]; read-out: L-glutamate Max. (maximal asymptote) in the presence of test item, GluN1/GluN2D, test item 0.195 μM
  remaining activity at 0.195 µM: 91%
[1]; read-out: L-glutamate Max. (maximal asymptote) in the presence of test item, GluN1/GluN2D, test item 0.781 μM
  remaining activity at 0.781 µM: 99%
[1]; read-out: L-glutamate Max. (maximal asymptote) in the presence of test item, GluN1/GluN2D, test item 3.1 μM
  remaining activity at 3.1 µM: 87%
[1]; read-out: L-glutamate Max. (maximal asymptote) in the presence of test item, GluN1/GluN2D, test item 12.5 μM
  remaining activity at 12.5 µM: 59%
[1]; read-out: L-glutamate Max. (maximal asymptote) in the presence of test item, GluN1/GluN2D, test item 50 μM
  remaining activity at 50 µM: 31%
[2]; [10]
  Min. (%), minimal % Ca2+ influx in the presence of 100 μM blocker: 14%
[2]; logistic fit of blocker CRC
  Slope: −0.89
[3]; NR1-2C, operational equation for allosteric modulators, no Mg2+
  Kb: 1200 nM
[3]; NR1-2C, reciprocal of KB, highest affinity subtype = 100%
  Affinity Ratio (%): 100%
[3]; read-out: L-glutamate Max. (maximal asymptote) in the presence of test item, GluN1/GluN2C, test item 0.049 μM
  remaining activity at 0.049 µM: 95%
[3]; read-out: L-glutamate Max. (maximal asymptote) in the presence of test item, GluN1/GluN2C, test item 0.195 μM
  remaining activity at 0.195 µM: 97%
[3]; read-out: L-glutamate Max. (maximal asymptote) in the presence of test item, GluN1/GluN2C, test item 0.781 μM
  remaining activity at 0.781 µM: 86%
[3]; read-out: L-glutamate Max. (maximal asymptote) in the presence of test item, GluN1/GluN2C, test item 3.1 μM
  remaining activity at 3.1 µM: 67%
[3]; read-out: L-glutamate Max. (maximal asymptote) in the presence of test item, GluN1/GluN2C, test item 12.5 μM
  remaining activity at 12.5 µM: 26%
[3]; read-out: L-glutamate Max. (maximal asymptote) in the presence of test item, GluN1/GluN2C, test item 50 μM
  remaining activity at 50 µM: 13%
[4]; NR1-2A, operational equation for allosteric modulators, no Mg2+
  Kb: 9600 nM
[4]; NR1-2A, reciprocal of KB, highest affinity subtype = 100%
  Affinity Ratio (%): 13%
[4]; read-out: L-glutamate Max. (maximal asymptote) in the presence of test item, GluN1/GluN2A, test item 0.049 μM
  remaining activity at 0.049 µM: 98%
[4]; read-out: L-glutamate Max. (maximal asymptote) in the presence of test item, GluN1/GluN2A, test item 0.195 μM
  remaining activity at 0.195 µM: 92%
[4]; read-out: L-glutamate Max. (maximal asymptote) in the presence of test item, GluN1/GluN2A, test item 0.781 μM
  remaining activity at 0.781 µM: 99%
[4]; read-out: L-glutamate Max. (maximal asymptote) in the presence of test item, GluN1/GluN2A, test item 3.1 μM
  remaining activity at 3.1 µM: 88%
[4]; read-out: L-glutamate Max. (maximal asymptote) in the presence of test item, GluN1/GluN2A, test item 12.5 μM
  remaining activity at 12.5 µM: 79%
[4]; read-out: L-glutamate Max. (maximal asymptote) in the presence of test item, GluN1/GluN2A, test item 50 μM
  remaining activity at 50 µM: 44%
[5]; [10]
  Min. (%), minimal % Ca2+ influx in the presence of 100 μM blocker: 14%
[5]; logistic fit of blocker CRC
  Slope: −1.0
[6]; [10]
  Min. (%), minimal % Ca2+ influx in the presence of 100 μM blocker: 43%
[6]; logistic fit of blocker CRC
  Slope: −1.2
[7]; [3H]TCP 4 nM
  IC50: 2060 nM
[7]; [3H]TCP, Cheng and Prusoff
  Ki: 1400 nM
[8]; [10]
  Min. (%), minimal % Ca2+ influx in the presence of 100 μM blocker: 35%
[8]; logistic fit of blocker CRC
  Slope: −0.80
[9]; NR1-2B, operational equation for allosteric modulators, no Mg2+
  Kb: 1900 nM
[9]; NR1-2B, reciprocal of KB, highest affinity subtype = 100%
  Affinity Ratio (%): 63%
[9]; read-out: L-glutamate Max. (maximal asymptote) in the presence of test item, GluN1/GluN2B, test item 0.049 μM
  remaining activity at 0.049 µM: 95%
[9]; read-out: L-glutamate Max. (maximal asymptote) in the presence of test item, GluN1/GluN2B, test item 0.195 μM
  remaining activity at 0.195 µM: 92%
[9]; read-out: L-glutamate Max. (maximal asymptote) in the presence of test item, GluN1/GluN2B, test item 0.781 μM
  remaining activity at 0.781 µM: 88%
[9]; read-out: L-glutamate Max. (maximal asymptote) in the presence of test item, GluN1/GluN2B, test item 3.1 μM
  remaining activity at 3.1 µM: 74%
[9]; read-out: L-glutamate Max. (maximal asymptote) in the presence of test item, GluN1/GluN2B, test item 12.5 μM
  remaining activity at 12.5 µM: 57%
[9]; read-out: L-glutamate Max. (maximal asymptote) in the presence of test item, GluN1/GluN2B, test item 50 μM
  remaining activity at 50 µM: 32%
